Tests used:
Type in all cases: in vivo
[1] = tested on: nutsedge, yellow (yellow nutsedge, Cyperus esculentus); assay: Test C greenhouse herbicide test, pre- and postemergence
How it was run: (§1)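 Each species was treated both before emergence, in a loam–sand soil mix, and after emergence, as 1- to 4-leaf seedlings in peat-based potting medium. Plants stayed in the greenhouse 13 to 15 d, then were scored from 0 (no effect) to 100 (complete control) relative to controls.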

[2] = tested on: corn (Zea mays); assay: as above
How it was run: as §1

[3] = tested on: foxtail, giant (giant foxtail, Setaria faberii); assay: as above
How it was run: as §1

[4] = tested on: johnsongrass (Sorghum halepense); assay: as above
How it was run: as §1

[5] = tested on: soybean (Glycine max); assay: as above
How it was run: as §1

[6] = tested on: crabgrass, large (large crabgrass, Digitaria sanguinalis); assay: as above
How it was run: as §1

[7] = tested on: ragweed (common ragweed, Ambrosia elatior); assay: as above
How it was run: as §1

[8] = tested on: waterhemp (common waterhemp, Amaranthus rudis); assay: as above
How it was run: as §1

[9] = tested on: blackgrass (Alopecurus myosuroides); assay: as above
How it was run: as §1

[10] = tested on: wheat (winter wheat, Triticum aestivum); assay: as above
How it was run: as §1

[11] = tested on: ryegrass, Italian (Italian ryegrass, Lolium multiflorum); assay: as above
How it was run: as §1

[12] = tested on: lambsquarters (Chenopodium album); assay: as above
How it was run: as §1

[13] = tested on: pigweed (Amaranthus retroflexus); assay: as above
How it was run: as §1

[14] = tested on: morningglory (Ipomoea coccinea); assay: as above
How it was run: as §1

[15] = tested on: oilseed rape (Brassica napus); assay: as above
How it was run: as §1

[16] = tested on: kochia (Kochia scoparia); assay: Test C greenhouse herbicide test, postemergence; settings: for Plant response rating, Kochia: Postemergence
How it was run: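 Greenhouse postemergence spray on plants 2–18 cm tall; response judged visually after 13–15 d relative to untreated controls using a 0 (none) to 100 (full control) scale.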

[17] = Postemergence, 125 g ai/ha, scale 0 to 100, 0 is no effect, 100 is complete control
[18] = Postemergence, 250 g ai/ha, scale 0 to 100, 0 no effect, 100 complete control, 13 to 15 d
[19] = Preemergence, 31 g ai/ha, scale 0 to 100, 0 is no effect, 100 is complete control
[20] = Preemergence, 62 g ai/ha, scale 0 to 100, 0 is no effect, 100 is complete control
[21] = Preemergence, 125 g ai/ha, scale 0 to 100, 0 is no effect, 100 is complete control
[22] = Preemergence, 250 g ai/ha, scale 0 to 100 (0 no effect, 100 complete control)
[23] = postemergence, 62 g ai/ha, scale 0 to 100, 0 no effect, 100 complete control
[24] = Postemergence, 31 g ai/ha, 0 to 100 scale (0 no effect, 100 complete control)

## CCOC(=O)Oc1c(C)nn(C)c(=O)c1-c1c(C)sc2c(C)cc(C)cc12 [Compound 83]
[1]; [17]
  Plant response rating, Nutsedge, Yellow: 85
[1]; [18]
  Plant response rating, Nutsedge, Yellow: 90
[1]; [19]
  Plant response rating, Nutsedge, Yellow: 85
[1]; [20]
  Plant response rating, Nutsedge, Yellow: 90
[1]; [21]
  Plant response rating, Nutsedge, Yellow: 85
[1]; [22]
  Nutsedge, Yellow plant response rating: 95
[1]; [23]
  Nutsedge, Yellow plant response rating: 80
[2]; [24]
  Corn plant response rating: 5
[2]; [17]
  Plant response rating, Corn: 10
[2]; [18]
  Plant response rating, Corn: 10
[2]; [19]
  Plant response rating, Corn: 0
[2]; [20]
  Plant response rating, Corn: 0
[2]; [21]
  Plant response rating, Corn: 0
[2]; [22]
  Corn plant response rating: 10
[2]; [23]
  Corn plant response rating: 5
[3]; [17]
  Plant response rating, Foxtail, Giant: 85
[3]; [18]
  Plant response rating, Foxtail, Giant: 90
[3]; [19]
  Plant response rating, Foxtail, Giant: 85
[3]; [20]
  Plant response rating, Foxtail, Giant: 100
[3]; [21]
  Plant response rating, Foxtail, Giant: 100
[3]; [22]
  Foxtail, Giant plant response rating: 100
[3]; [23]
  Foxtail, Giant plant response rating: 85
[4]; [17]
  Plant response rating, Johnsongrass: 5
[4]; [18]
  Plant response rating, Johnsongrass: 10
[4]; [19]
  Plant response rating, Johnsongrass: 65
[4]; [20]
  Plant response rating, Johnsongrass: 75
[4]; [21]
  Plant response rating, Johnsongrass: 60
[4]; [22]
  Johnsongrass plant response rating: 70
[4]; [23]
  Johnsongrass plant response rating: 5
[5]; [17]
  Plant response rating, Soybean: 0
[5]; [18]
  Plant response rating, Soybean: 10
[5]; [19]
  Plant response rating, Soybean: 30
[5]; [20]
  Plant response rating, Soybean: 0
[5]; [21]
  Plant response rating, Soybean: 0
[5]; [22]
  Soybean plant response rating: 0
[5]; [23]
  Soybean plant response rating: 0
[6]; [17]
  Plant response rating, Crabgrass, Large: 40
[6]; [18]
  Plant response rating, Crabgrass, Large: 55
[6]; [19]
  Plant response rating, Crabgrass, Large: 75
[6]; [20]
  Plant response rating, Crabgrass, Large: 65
[6]; [21]
  Plant response rating, Crabgrass, Large: 70
[6]; [22]
  Crabgrass, Large plant response rating: 85
[6]; [23]
  Crabgrass, Large plant response rating: 25
[7]; [17]
  Plant response rating, Ragweed: 90
[7]; [18]
  Plant response rating, Ragweed: 85
[7]; [19]
  Plant response rating, Ragweed: 85
[7]; [20]
  Plant response rating, Ragweed: 100
[7]; [21]
  Plant response rating, Ragweed: 95
[7]; [22]
  Ragweed plant response rating: 95
[7]; [23]
  Ragweed plant response rating: 85
[8]; [17]
  Plant response rating, Waterhemp: 60
[8]; [18]
  Plant response rating, Waterhemp: 80
[8]; [19]
  Plant response rating, Waterhemp: 60
[8]; [20]
  Plant response rating, Waterhemp: 90
[8]; [21]
  Plant response rating, Waterhemp: 100
[8]; [22]
  Waterhemp plant response rating: 100
[8]; [23]
  Waterhemp plant response rating: 85
[9]; [24]
  Blackgrass plant response rating: 40
[9]; [17]
  Plant response rating, Blackgrass: 90
[9]; [18]
  Plant response rating, Blackgrass: 90
[9]; [19]
  Plant response rating, Blackgrass: 70
[9]; [20]
  Plant response rating, Blackgrass: 80
[9]; [21]
  Plant response rating, Blackgrass: 80
[9]; [22]
  Blackgrass plant response rating: 90
[9]; [23]
  Blackgrass plant response rating: 80
[10]; [17]
  Plant response rating, Wheat: 0
[10]; [18]
  Plant response rating, Wheat: 0
[10]; [19]
  Plant response rating, Wheat: 0
[10]; [20]
  Plant response rating, Wheat: 0
[10]; [21]
  Plant response rating, Wheat: 0
[10]; [22]
  Wheat plant response rating: 0
[10]; [23]
  Wheat plant response rating: 0
[11]; [17]
  Plant response rating, Ryegrass, Italian: 90
[11]; [18]
  Plant response rating, Ryegrass, Italian: 95
[11]; [19]
  Plant response rating, Ryegrass, Italian: 90
[11]; [20]
  Plant response rating, Ryegrass, Italian: 90
[11]; [21]
  Plant response rating, Ryegrass, Italian: 90
[11]; [22]
  Ryegrass, Italian plant response rating: 90
[11]; [23]
  Ryegrass, Italian plant response rating: 90
[12]; [17]
  Plant response rating, Lambsquarters: 85
[12]; [18]
  Plant response rating, Lambsquarters: 98
[12]; [19]
  Plant response rating, Lambsquarters: 80
[12]; [20]
  Plant response rating, Lambsquarters: 85
[12]; [21]
  Plant response rating, Lambsquarters: 95
[12]; [22]
  Lambsquarters plant response rating: 100
[12]; [23]
  Lambsquarters plant response rating: 85
[13]; [17]
  Plant response rating, Pigweed: 90
[13]; [18]
  Plant response rating, Pigweed: 90
[13]; [19]
  Plant response rating, Pigweed: 100
[13]; [20]
  Plant response rating, Pigweed: 100
[13]; [21]
  Plant response rating, Pigweed: 100
[13]; [22]
  Pigweed plant response rating: 100
[13]; [23]
  Pigweed plant response rating: 85
[14]; [17]
  Plant response rating, Morningglory: 100
[14]; [18]
  Plant response rating, Morningglory: 98
[14]; [19]
  Plant response rating, Morningglory: 85
[14]; [20]
  Plant response rating, Morningglory: 90
[14]; [21]
  Plant response rating, Morningglory: 95
[14]; [22]
  Morningglory plant response rating: 98
[14]; [23]
  Morningglory plant response rating: 90
[15]; [17]
  Plant response rating, Oilseed Rape: 45
[15]; [18]
  Plant response rating, Oilseed Rape: 70
[15]; [19]
  Plant response rating, Oilseed Rape: 0
[15]; [20]
  Plant response rating, Oilseed Rape: 0
[15]; [21]
  Plant response rating, Oilseed Rape: 50
[15]; [22]
  Oilseed Rape plant response rating: 50
[15]; [23]
  Oilseed Rape plant response rating: 0
[16]; 125 g ai/ha, scale 0 to 100, 0 is no effect, 100 is complete control
  Plant response rating, Kochia: 65
[16]; 250 g ai/ha, scale 0 to 100, 0 no effect, 100 complete control, 13 to 15 d
  Plant response rating, Kochia: 80
[16]; [23]
  Kochia plant response rating: 60
